The numbers were not newly measured in paper PMC6594753, “Cystic fibrosis drug ivacaftor stimulates CFTR channels at picomolar concentrations” (eLife, 2019), which cites them from elsewhere.

For the data set, the system named is CFTR. On the set-up: method as in Yeh et al., 2019. To be noted: ref Yeh et al., 2019; cited from earlier work.

Regarding `CC1(C)Cc2c(sc(NC(=O)c3ccn[nH]3)c2C(N)=O)C(C)(C)O1` [GLPG-1837], the “Hill coefficients of dose response curves for activation” value is recorded as “close to unity”.
